Several values for one entry are separate records, joined by “and”; a condition that tells them apart may be missing. Equal values may be shown once. Toxic doses and inconclusive results are not listed. Numbered stars: 1 amine (or outer) side, 2 acyl side, 3 side chain; on linkers, the order of the positions; unused ones are H or OH. Bridge positions count the residues as written; N and C are the ends. Square brackets hold non-standard residues; d marks the D form. Peptide text beside a SMILES is read from it. I, II: the chains in the order shown. Actinocin(9to1) = Cc1c2oc3c(C)ccc(C(=O)[*:1])c3nc-2c(C(=O)[*:2])c(N)c1=O; X4 = O=C(C1CC(Cl)CN1[*:1])[*:2]; NMeV = CN[CH](C(=O)O)C(C)C; Sar = CNCC(=O)O
Tested on: L1210 leukemia ip in BDF1 mice, survival T/C
Assay: NCI In Vivo Anticancer Drug Screen. Data for tumor model L1210 Leukemia (intraperitoneal) in B6D2F1 (BDF1) mice
Details: endpoint: mean survival time, higher = longer survival
Outline: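 Read-out is survival time, reported as the treated-group measurement over the vehicle-control measurement.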

[1] = dose: 75.0 mg/kg/injection, schedule: Q01DX001 (ip), vehicle: saline
[2] = dose: 150.0 mg/kg/injection, schedule: Q01DX001 (ip), vehicle: saline
[3] = dose: 100.0 mg/kg/injection, schedule: Q01DX009 (ip), vehicle: saline
[4] = dose: 200.0 mg/kg/injection, schedule: Q01DX009 (ip), vehicle: saline

**Q.** How did the T/C (dose: 50.0 mg/kg/injection, schedule: Q01DX001 (ip), vehicle: saline) turn out when `N#CCC(=O)N1CCCC1` was run?
**A.** 95 % of control

**Q.** And the T/C (dose: 100.0 mg/kg/injection, schedule: Q01DX001 (ip), vehicle: saline)?
**A.** 104 % of control

**Q.** And the T/C (dose: 200.0 mg/kg/injection, schedule: Q01DX001 (ip), vehicle: saline)?
**A.** 98 % of control

**Q.** What about the T/C (dose: 400.0 mg/kg/injection, schedule: Q01DX001 (ip), vehicle: saline) of the same compound?
**A.** 95 % of control

**Q.** With `C1CC2CCCC(C1)S2` as the compound, how does the T/C [1] read?
**A.** 102 % of control

**Q.** And the T/C [2]?
**A.** 100 % of control

**Q.** And the T/C (dose: 300.0 mg/kg/injection, schedule: Q01DX001 (ip), vehicle: saline)?
**A.** 96 % of control

**Q.** How did the T/C (dose: 12.5 mg/kg/injection, schedule: Q04DX003 (ip), vehicle: saline) turn out when `C[N+](C)(C)CCC(=O)c1ccccc1` was run?
**A.** 97 % of control

**Q.** What about the T/C (dose: 25.0 mg/kg/injection, schedule: Q04DX003 (ip), vehicle: saline) of the same compound?
**A.** 100 % of control

**Q.** And the T/C (dose: 50.0 mg/kg/injection, schedule: Q04DX003 (ip), vehicle: saline)?
**A.** 94 % of control

**Q.** What about the T/C [1] of the same compound?
**A.** 102 % of control

**Q.** Which T/C (dose: 25.0 mg/kg/injection, schedule: Q01DX009 (ip), vehicle: Klucel (hydroxypropylcellulose) (HPC)) does the source give for `COc1ccc(NC(=O)Oc2ccccc2C(N)=O)c(OC)c1` here?
**A.** 109 % of control

**Q.** What about the T/C (dose: 50.0 mg/kg/injection, schedule: Q01DX009 (ip), vehicle: Klucel (hydroxypropylcellulose) (HPC)) of the same compound?
**A.** 102 % of control

**Q.** What about the T/C (dose: 100.0 mg/kg/injection, schedule: Q01DX009 (ip), vehicle: Klucel (hydroxypropylcellulose) (HPC)) of the same compound?
**A.** 103 % of control and 112 % of control

**Q.** With `CC(CO)(NC(=O)OCc1ccccc1)C(=O)O` (stereo unspecified) as the compound, how does the T/C (dose: 100.0 mg/kg/injection, schedule: Q01DX009 (ip), vehicle: acetone) read?
**A.** 94 % of control

**Q.** And the T/C (dose: 200.0 mg/kg/injection, schedule: Q01DX009 (ip), vehicle: acetone)?
**A.** 92 % of control

**Q.** What about the T/C (dose: 400.0 mg/kg/injection, schedule: Q01DX009 (ip), vehicle: acetone) of the same compound?
**A.** 92 % of control

**Q.** Which results are given for `Cc1c2oc3c(C)ccc(C(=O)NC4C(=O)NC(C(C)C)C(=O)N5CC(Cl)CC5C(=O)N(C)CC(=O)N(C)C(C(C)C)C(=O)OC4C)c3nc-2c(C(=O)NC2C(=O)NC(C(C)C)C(=O)N3CC(Cl)CC3C(=O)N(C)CC(=O)N(C)C(C(C)C)C(=O)OC2C)c(N)c1=O` (stereo unspecified) (I: TV[X4][Sar][NMeV] / II: TV[X4][Sar][NMeV]; ester I:1-I:C, II:1-II:C; linker I:N-II:N via Actinocin(9to1); configuration not given here)?
**A.** T/C (dose: 200.0 micrograms/kg/injection, schedule: Q01DX009 (ip), vehicle: saline + alcohol): 117 % of control; T/C (dose: 300.0 micrograms/kg/injection, schedule: Q01DX009 (ip), vehicle: saline + alcohol): 123 % of control; T/C (dose: 600.0 micrograms/kg/injection, schedule: Q01DX009 (ip), vehicle: saline + alcohol): 124 % of control; T/C (dose: 800.0 micrograms/kg/injection, schedule: Q01DX009 (ip), vehicle: saline + alcohol): 156 % of control; T/C (dose: 800.0 micrograms/kg/injection, schedule: Q04DX003 (ip), vehicle: saline + alcohol): 122 % of control; T/C (dose: 4800.0 micrograms/kg/injection, schedule: Q04DX003 (ip), vehicle: saline + alcohol): 121 % of control

**Q.** `Nc1c(Cl)c(Cl)c2c(c1Cl)C(=O)c1cc(Cl)ccc1-2` was tested. Which T/C (dose: 100.0 mg/kg/injection, schedule: Q01DX001 (ip), vehicle: carboxymethylcellulose (CMC)) did it give?
**A.** 97 % of control

**Q.** And the T/C (dose: 200.0 mg/kg/injection, schedule: Q01DX001 (ip), vehicle: carboxymethylcellulose (CMC))?
**A.** 108 % of control

**Q.** What about the T/C (dose: 400.0 mg/kg/injection, schedule: Q01DX001 (ip), vehicle: carboxymethylcellulose (CMC)) of the same compound?
**A.** 105 % of control

**Q.** What does the source list for `O=C(NCCc1cnc[nH]1)C(F)(F)F`?
**A.** T/C (dose: 50.0 mg/kg/injection, schedule: Q01DX009 (ip), vehicle: saline): 96 % of control; T/C [3]: 96 % of control; T/C [4]: 100 % of control

**Q.** For `CCOC(=O)NC(NC(=O)OCC)NC(=O)OCC`, which T/C [3] is on record?
**A.** 102 % of control

**Q.** And the T/C [4]?
**A.** 104 % of control

**Q.** And the T/C (dose: 400.0 mg/kg/injection, schedule: Q01DX009 (ip), vehicle: saline)?
**A.** 104 % of control

**Q.** `CCN(CC)CCCNC(c1ccc(OC)cc1)C(Cl)(Cl)Cl` (stereo unspecified) was tested. Which T/C [1] did it give?
**A.** 90 % of control

**Q.** What about the T/C [2] of the same compound?
**A.** 93 % of control

**Q.** What does the source list for `C1=Nc2ccccc2/C1=C/c1cccc2ccccc12`?
**A.** T/C (dose: 100.0 mg/kg/injection, schedule: Q04DX002 (ip), vehicle: saline with Tween-80): 98 % of control; T/C (dose: 200.0 mg/kg/injection, schedule: Q04DX002 (ip), vehicle: saline with Tween-80): 101 % of control

**Q.** `O=C(/C=C/C=C/c1ccccc1)c1ccc(Cl)cc1` was tested. Which T/C (dose: 100.0 mg/kg/injection, schedule: Q01DX009 (ip), vehicle: saline with Tween-80) did it give?
**A.** 97 % of control

**Q.** What about the T/C (dose: 100.0 mg/kg/injection, schedule: Q04DX003 (ip), vehicle: saline with Tween-80) of the same compound?
**A.** 95 % of control

**Q.** What about the T/C (dose: 200.0 mg/kg/injection, schedule: Q01DX009 (ip), vehicle: saline with Tween-80) of the same compound?
**A.** 92 % of control

**Q.** What about the T/C (dose: 400.0 mg/kg/injection, schedule: Q01DX009 (ip), vehicle: saline with Tween-80) of the same compound?
**A.** 95 % of control

**Q.** What about the T/C (dose: 400.0 mg/kg/injection, schedule: Q04DX003 (ip), vehicle: saline with Tween-80) of the same compound?
**A.** 96 % of control

Reference: PubChem BioAssay AID248 (DTP/NCI, 2004)
